Here are results for two compounds from patent publication US8198292B2, “Vinpocetine and eburnamonine derivatives for promoting bone growth, treating renal damage and cancer, and devices thereof” (Osteogenex, Inc., priority 2008, dated 2012).

The structures appear in SMILES notation. Where a name gives a salt, the structure may show the parent alone.

What all share (format): in vivo
In test [1] the test system is C57BL/6 mice. Description: Trabecular bone volume of the proximal tibia by micro-CT, daily i.p. treatment for 30 days. Particulars: for increase in tibia long bone bone-volume/total volume over baseline control: 30 days, micro-CT. Here is the method: Using the assay described above and in Journal of Bone and Mineral Research 2006, 21(11), 1738-1749 (incorporated herein in its entirety), compounds of the present invention can be identified as promoting bone growth. For example, the mouse test animal is treated with a predetermined dose of a SOST antagonist candidate for a complete dosing schedule. A control mouse is treated with a control solution, preferably a non-irritating buffer solution or other carrier. Once the dosing schedule has been completed, both test and control animals are examined with sacrifice using micro-CT to determine the quantity of bone formation present.
(§1) Four month old male C57BL/6 mice were treated daily with saline vehicle or the sclerostin inhibitor of eburnamonine phosphate at several doses (via i.p) for 30 days. Study endpoints included a biochemical marker of bone formation; osteocalcin, measured by EIA Elisa, and measurement of trabecular bone volume by mico-CT analysis on the proximal tibia and spine (lumbar 5). […] See also FIG. 3, showing increase in bone volume for the tibia: 5 mg/kg (D) and 0.33 mg/kg (E).

For test [2], the system named is C57BL/6 mice. Put plainly: Serum osteocalcin (bone formation marker) by EIA Elisa, daily i.p. treatment for 30 days. Particulars: for increase in osteocalcin serum levels: FIG. 4. Here is the method:
as §1

Test [3] has as its system C57BL/6 mice. Description: Bone volume of the spine (lumbar 5) by micro-CT, daily i.p. treatment for 30 days. To be noted: i.p. daily 30 days, dose not stated. On the procedure:
as §1

For test [4], the system named is C57BL/6 mice. Put plainly: Bone volume of the tibia by pQCT after IP treatment (procedure of Example 2). Particulars: 10 mg/kg IP. Here is the method: Four month old male C57BL/6 mice were treated daily with saline vehicle or the sclerostin inhibitor of eburnamonine phosphate at several doses (via i.p) for 30 days. […] See also FIG. 3, showing increase in bone volume for the tibia: 5 mg/kg (D) and 0.33 mg/kg (E). […] Using the procedure set forth in Example 2, vinpocetine citrate was investigated for bone growth.

Consider `CCC12CCCN3CCc4c(n(c5ccccc45)C(=O)C1)C32` (stereo not drawn) [eburnamonine phosphate], for which the “increase in tibia long bone bone-volume/total volume over baseline control” value is 17% with C57BL/6 mice [1] (FIG. 1 (B), 5 mg/kg i.p. daily) and 10% in the test with C57BL/6 mice [1] (FIG. 1 (C), 1 mg/kg i.p. daily). The “increase in tibia long bone bone-volume/total volume compared to baseline controls” value in the test on C57BL/6 mice [1] (FIG. 3 (D), 5 mg/kg) is recorded as 9%; in the test with C57BL/6 mice [1] (FIG. 3 (E), 0.33 mg/kg), 17%. In addition, the “percent change in serum osteocalcin increase versus saline controls” value in the test with C57BL/6 mice [2] (FIG. 2, 5 mg/kg i.p. daily, 30 days, mice) was 35%. In the test on C57BL/6 mice [2] (0.33 mg/kg, mice), the “increase in osteocalcin serum levels” value was 39%. In the test on C57BL/6 mice [3], the “increase in bone volume of lumbar 5 (U-CT)” value is on record as 52%.
Regarding `CCOC(=O)C1=CC2(CC)CCCN3CCc4c(n1c1ccccc41)C32` (stereo not drawn) [vinpocetine citrate], in the test with C57BL/6 mice [4], the “increase in bone volume of the tibia (pQCT)” value worked out at 8%. Besides, the “increase in osteocalcin serum levels” value in the test on C57BL/6 mice [2] (10 mg/kg, over baseline) is on record as 62%.
